The subject of the assay is BDF1 mice, Friend leukemia sc, tumor weight T/C. Nature of the assay: NCI In Vivo Anticancer Drug Screen. Data for tumor model Friend Virus Leukemia (Solid) (subcutaneous) in B6D2F1 (BDF1) mice. The following applies: endpoint: mean tumor weight, higher = larger tumour. Here is the method: The antitumor activity of compounds was measured in mice bearing transplantable tumors. Survival or tumor size were measured and the results are expressed as the measurement made in the treated group (T) divided by the measurement made in the vehicle treated control group (C). The tumor model used in this assay is Friend Virus Leukemia (Solid) (subcutaneous) in B6D2F1 (BDF1) mice

The mark [1] stands for this setting: dose: 10.0 mg/kg/injection, schedule: Q01DX011 (ip), vehicle: carboxymethylcellulose (CMC).
The mark [2] stands for this setting: dose: 20.0 mg/kg/injection, schedule: Q01DX011 (ip), vehicle: carboxymethylcellulose (CMC).
Where [3] appears, read: dose: 40.0 mg/kg/injection, schedule: Q01DX011 (ip), vehicle: carboxymethylcellulose (CMC).
The mark [4] stands for this setting: dose: 62.5 mg/kg/injection, schedule: Q01DX011 (ip), vehicle: carboxymethylcellulose (CMC).
The mark [5] stands for this setting: dose: 125.0 mg/kg/injection, schedule: Q01DX011 (ip), vehicle: carboxymethylcellulose (CMC).
[6] abbreviates: dose: 500.0 mg/kg/injection, schedule: Q01DX011 (ip), vehicle: carboxymethylcellulose (CMC).
Where [7] appears, read: dose: 250.0 mg/kg/injection, schedule: Q01DX011 (ip), vehicle: carboxymethylcellulose (CMC).
[8] abbreviates: dose: 1.0 mg/kg/injection, schedule: Q01DX011 (ip), vehicle: carboxymethylcellulose (CMC).
Where [9] appears, read: dose: 3.0 mg/kg/injection, schedule: Q01DX011 (ip), vehicle: carboxymethylcellulose (CMC).
Where [10] appears, read: dose: 6.0 mg/kg/injection, schedule: Q01DX011 (ip), vehicle: carboxymethylcellulose (CMC).
Setting [11] is: dose: 12.0 mg/kg/injection, schedule: Q01DX011 (ip), vehicle: carboxymethylcellulose (CMC).
Where [12] appears, read: dose: 25.0 mg/kg/injection, schedule: Q01DX011 (ip), vehicle: carboxymethylcellulose (CMC).
[13] abbreviates: dose: 50.0 mg/kg/injection, schedule: Q01DX011 (ip), vehicle: carboxymethylcellulose (CMC).
The mark [14] stands for this setting: dose: 100.0 mg/kg/injection, schedule: Q01DX011 (ip), vehicle: carboxymethylcellulose (CMC).
[15] abbreviates: dose: 0.25 mg/kg/injection, schedule: Q01DX011 (ip), vehicle: carboxymethylcellulose (CMC).
The mark [16] stands for this setting: dose: 0.5 mg/kg/injection, schedule: Q01DX011 (ip), vehicle: carboxymethylcellulose (CMC).
[17] abbreviates: dose: 7.0 mg/kg/injection, schedule: Q01DX011 (ip), vehicle: carboxymethylcellulose (CMC).

Where “and” joins values, the source holds several entries; their conditions need not be identical. Identical values can stand only once. Records with an inconclusive call do not appear.

As to `CN(C)Nc1ncnc2nc[nH]c12`, the T/C reads like this: (dose: 5.0 mg/kg/injection, schedule: Q01DX011 (ip), vehicle: carboxymethylcellulose (CMC)) 74 % of control; under setting [1], 80 % of control; under setting [2], 59 % of control and 65 % of control; under setting [3], 17 % of control and 35 % of control.

In the case of `CC(C)(c1ccccc1)c1ccc(O)cc1`, the T/C is 94 % of control (dose: 37.5 mg/kg/injection, schedule: Q01DX011 (ip), vehicle: carboxymethylcellulose (CMC)); 107 % of control (dose: 75.0 mg/kg/injection, schedule: Q01DX011 (ip), vehicle: carboxymethylcellulose (CMC)); 87 % of control (dose: 150.0 mg/kg/injection, schedule: Q01DX011 (ip), vehicle: carboxymethylcellulose (CMC)).

Turning to `O=[N+]([O-])c1ccc(O)c([N+](=O)[O-])c1`, the T/C is 101 % of control (dose: 3.87 mg/kg/injection, schedule: Q01DX011 (ip), vehicle: carboxymethylcellulose (CMC)); 102 % of control (dose: 6.75 mg/kg/injection, schedule: Q01DX011 (ip), vehicle: carboxymethylcellulose (CMC)); 103 % of control (dose: 13.5 mg/kg/injection, schedule: Q01DX011 (ip), vehicle: carboxymethylcellulose (CMC)); 123 % of control (dose: 27.0 mg/kg/injection, schedule: Q01DX011 (ip), vehicle: carboxymethylcellulose (CMC)).

On to `Nc1ccc2ccccc2c1N=Nc1ccccc1`, for which the T/C reads like this: under setting [4], 66 % of control; under setting [5], 58 % of control; under setting [6], 25 % of control and 27 % of control.

Turning to `CC[C@]1(O)C[C@H]2CN(CCc3c([nH]c4ccccc34)[C@@](C(=O)OC)(c3cc4c(cc3OC)N(C)[C@H]3[C@@](O)(C(=O)OC)[C@H](OC(C)=O)[C@]5(CC)C=CCN6CC[C@]43[C@@H]65)C2)C1`, the T/C runs as follows: (dose: 0.12 mg/kg/injection, schedule: Q01DX011 (ip), vehicle: carboxymethylcellulose (CMC)) 103 % of control; (dose: 0.24 mg/kg/injection, schedule: Q01DX011 (ip), vehicle: carboxymethylcellulose (CMC)) 53 % of control.

For `Nc1ccc(C(=O)O)c(O)c1`, the T/C was 82 % of control (dose: 37.8 mg/kg/injection, schedule: Q01DX011 (ip), vehicle: carboxymethylcellulose (CMC)); 101 % of control (dose: 75.7 mg/kg/injection, schedule: Q01DX011 (ip), vehicle: carboxymethylcellulose (CMC)); 113 % of control (dose: 151.5 mg/kg/injection, schedule: Q01DX011 (ip), vehicle: carboxymethylcellulose (CMC)); 95 % of control (dose: 303.0 mg/kg/injection, schedule: Q01DX011 (ip), vehicle: carboxymethylcellulose (CMC)).

As for `O=C(Nc1ccc(C2=NCCN2)cc1)c1cc(Cl)cc(C(=O)Nc2ccc(C3=NCCN3)cc2)c1`, the T/C reads like this: (dose: 62.0 mg/kg/injection, schedule: Q01DX011 (ip), vehicle: carboxymethylcellulose (CMC)) 75 % of control; under setting [5], 111 % of control; under setting [7], 81 % of control; under setting [6], 114 % of control.

In the case of `Nc1nc(SCc2ccccc2Cl)c2[nH]cnc2n1`, the T/C under setting [8] is 88 % of control; the T/C under setting [9] is 77 % of control; the T/C under setting [10] is 67 % of control; the T/C under setting [11] is 28 % of control; the T/C under setting [12] was 18 % of control; the T/C under setting [13] was 7 % of control. The T/C under setting [14] was 2 % of control.

Regarding `[I][Hg][CH2]C1COCC([CH2][Hg][I])O1.[I][Hg][CH2]C1COCC([CH2][Hg][I])O1` (stereo not given), the T/C under setting [1] was 75 % of control; the T/C under setting [2] is 56 % of control; the T/C under setting [3] is 77 % of control; the T/C (dose: 80.0 mg/kg/injection, schedule: Q01DX011 (ip), vehicle: carboxymethylcellulose (CMC)) was 45 % of control.

For the compound `CC1(C)CC(C)(c2ccccc2)c2ccccc21` (stereo not given), the T/C was 68 % of control under setting [4], 70 % of control under setting [5], 67 % of control under setting [7] and 25 % of control under setting [6].

As to `Cn1cnc([N+](=O)[O-])c1Sc1nc(N)nc2c1ncn2C1OC(CO)C(O)C1O` (stereo not given), the T/C under setting [15] was 73 % of control; the T/C under setting [16] is 61 % of control; the T/C under setting [8] was 31 % of control and 32 % of control; the T/C under setting [9] is 10 % of control and 24 % of control; the T/C under setting [17] is 5 % of control.

For the compound `C=CCNc1ccc(C)cc1`, the T/C was 60 % of control (dose: 22.0 mg/kg/injection, schedule: Q01DX011 (ip), vehicle: carboxymethylcellulose (CMC)); 58 % of control (dose: 45.0 mg/kg/injection, schedule: Q01DX011 (ip), vehicle: carboxymethylcellulose (CMC)); 35 % of control (dose: 90.0 mg/kg/injection, schedule: Q01DX011 (ip), vehicle: carboxymethylcellulose (CMC)).

Consider `COc1ccc(Nc2ccnc3cc(Cl)ccc23)cc1CN(CCCl)CCCl`, for which the T/C is 81 % of control under setting [8]; 76 % of control (dose: 2.0 mg/kg/injection, schedule: Q01DX011 (ip), vehicle: carboxymethylcellulose (CMC)); 42 % of control (dose: 4.0 mg/kg/injection, schedule: Q01DX011 (ip), vehicle: carboxymethylcellulose (CMC)).

On to `NNc1ncnc2nc[nH]c12`, for which the T/C reads like this: (dose: 25.0 mg/kg/injection, schedule: Q01DX011 (ip), vehicle: saline) 118 % of control; (dose: 50.0 mg/kg/injection, schedule: Q01DX011 (ip), vehicle: saline) 61 % of control.

Regarding `CCCCn1cnc2c(=S)nc(N)[nH]c21`, the T/C was 87 % of control under setting [15]; 53 % of control under setting [16]; 32 % of control and 40 % of control under setting [8]; 6 % of control and 7 % of control under setting [9]; 12 % of control under setting [17]; 9 % of control (dose: 15.0 mg/kg/injection, schedule: Q01DX011 (ip), vehicle: carboxymethylcellulose (CMC)).

As to `O=c1cn[nH]c(=O)[nH]1`, the T/C by setting is: (dose: 110.0 mg/kg/injection, schedule: Q01DX011 (ip), vehicle: carboxymethylcellulose (CMC)) 72 % of control; (dose: 220.0 mg/kg/injection, schedule: Q01DX011 (ip), vehicle: carboxymethylcellulose (CMC)) 89 % of control; (dose: 440.0 mg/kg/injection, schedule: Q01DX011 (ip), vehicle: carboxymethylcellulose (CMC)) 96 % of control.

As for `Clc1ccc(C(c2ccccc2Cl)C(Cl)Cl)cc1` (stereo not given), the T/C reads like this: (dose: 375.0 mg/kg/injection, schedule: Q01DX011 (sc), vehicle: steriod suspending solution) 163 % of control; (dose: 500.0 mg/kg/injection, schedule: Q01DX011 (sc), vehicle: steriod suspending solution) 210 % of control; (dose: 750.0 mg/kg/injection, schedule: Q01DX011 (sc), vehicle: steriod suspending solution) 155 % of control.

Consider `Cn1c(O)c(N=NC(N)=S)c2ccccc21`, for which the T/C was 110 % of control (dose: 15.0 mg/kg/injection, schedule: Q01DX011 (ip), vehicle: saline); 105 % of control (dose: 30.0 mg/kg/injection, schedule: Q01DX011 (ip), vehicle: saline); 108 % of control (dose: 60.0 mg/kg/injection, schedule: Q01DX011 (ip), vehicle: saline); 75 % of control (dose: 120.0 mg/kg/injection, schedule: Q01DX011 (ip), vehicle: saline); 94 % of control (dose: 240.0 mg/kg/injection, schedule: Q01DX011 (ip), vehicle: saline).

Regarding `N#CCSc1ncnc2nc[nH]c12`, the T/C was 91 % of control (dose: 15.5 mg/kg/injection, schedule: Q01DX011 (ip), vehicle: carboxymethylcellulose (CMC)); 32 % of control (dose: 31.0 mg/kg/injection, schedule: Q01DX011 (ip), vehicle: carboxymethylcellulose (CMC)); 18 % of control under setting [4].

On to `ClCCn1cnc2c(SCc3ccccc3Cl)ncnc21`, for which the T/C was 72 % of control under setting [9]; 81 % of control under setting [10]; 77 % of control under setting [11]; 36 % of control under setting [12]; 43 % of control under setting [13]; 43 % of control under setting [14]. The T/C by setting is: (dose: 200.0 mg/kg/injection, schedule: Q01DX011 (ip), vehicle: carboxymethylcellulose (CMC)) 10 % of control and 25 % of control; (dose: 400.0 mg/kg/injection, schedule: Q01DX011 (ip), vehicle: carboxymethylcellulose (CMC)) 16 % of control.

The values above are taken from PubChem BioAssay AID228 (DTP/NCI, 2004).
